Measurements published in patent US20240382490A1, “QUINAZOLINE-THIOHYDANTOIN FUSED HETEROCYCLES WHICH ARE SUITABLE FOR TREATING, AMELIORATING OR PREVENTING A PROLIFERATIVE DISORDER” (FRIEDRICH-ALEXANDER-UNIVERSITÄT ERLANGEN NÜRNBERG, priority 2021, published 2024).
Where two headings read alike, the source gives them in different places.

What was measured:
[1] = test system: human endometrium cells; settings: NPL-12, read-out: Healthy cells IC50 (human endometrium cells); cited from earlier work
[2] = test system: wild-type CCRF CEM cells; settings: sensitive wild-type CCRF CEM cells; previously reported (NPL-9, NPL-10), footnote calls them EC50; cited from earlier work
[3] = test system: multidrug resistant P glycoprotein-overexpressing CEM/ADR5000 cells; settings: previously reported (NPL-9, NPL-10), footnote calls them EC50; cited from earlier work
[4] = test system: wild-type CCRF CEM cells; assay: IC50 in sensitive wild-type CCRF CEM leukemia cells; assay type: cell-based, human
[5] = test system: multidrug resistant P glycoprotein-overexpressing CEM/ADR5000 cells; assay: IC50 in multidrug resistant CEM/ADR5000 leukemia cells; assay type: cell-based, human
[6] = test system: healthy human cells; assay: IC50 in healthy cells (selectivity); assay type: cell-based; settings: for IC50: healthy human cells; for Activity against healthy cells relative to CEM/ADR5000 cells: healthy cells IC50 compared with CEM/ADR5000 IC50
[7] = test system: RPMI-8226 cells; assay: CellTiter-Blue cell viability assay, RPMI-8226; assay type: cell-based; settings: five dose (0.01, 0.1, 1, 10, 100 μM) screening, 48 h treatment
Experimental: (§1) All leukemia cell lines (RPMI-8226, K562, HL-60, and MOLT-4) were obtained from NCI-DTP, NCI-Frederick, USA. Cells were cultured and maintained in RPMI-1640 (Corning, USA; #10-040-CV) media supplemented with 10% FBS (Corning, USA; #35-015-CV) and 1% penicillin-streptomycin-amphotericin B (GIBCO, USA; #15240-062) at 37° C. with 5% CO2. At 70 to 80% confluence cells were harvested and plated for cell viability assay.
(§2) Each leukemia cell line was plated at 3000 cells/well (in 100 μL complete media) in black-clear bottom 96-well plates (Corning, USA; #3603). After 24 h, cells were treated with respective compounds at one dose (10 μM) or five dose (0.01, 0.1, 1, 10, 100 μM) concentrations. After 48 h treatment, cell viability was recorded using CellTiter-Blue cell viability assay (Promega, USA; #G8081) as per the manufacturer's protocol.

[8] = test system: human leukemia cell line (HAP1); assay: Cellular senescence in HAP1 cells; assay type: cell-based; settings: mediated by oncogene Ras and downstream MAPK/pRb pathways, FIG. 4
Experimental: (§3) Quinazoline-thiohydantoin fused heterocycles 5g and 5k were to tested to determine whether they can inhibit MRTF-A nuclear localization to overcome resistance. First the localization of MRTF-A in a human leukemia cell line (HAP1) was analyzed. […] It was also tested whether 5g can activate cellular senescence.

[9] = test system: MOLT-4 cells; assay: CellTiter-Blue cell viability assay, MOLT-4; assay type: cell-based; settings: five dose (0.01, 0.1, 1, 10, 100 μM) screening, 48 h treatment
Experimental: as §1, §2

[10] = test system: HL-60 cells; assay: CellTiter-Blue cell viability assay, HL-60; assay type: cell-based; settings: for IC50: five dose (0.01, 0.1, 1, 10, 100 μM) screening, 48 h treatment
Experimental: as §1, §2

[11] = test system: K562 cells; assay: CellTiter-Blue cell viability assay, K562; assay type: cell-based; settings: for IC50: five dose (0.01, 0.1, 1, 10, 100 μM) screening, 48 h treatment
Experimental: as §1, §2

[12] = test system: MRTF-A; assay: MRTF-A nuclear localization in HAP1 cells; assay type: cell-based; settings: human leukemia cell line HAP1, FIG. 4
Experimental: as §3

[13] = test system: human fibroblasts; settings: normal tissue cell line (human fibroblasts), NPL-11; read-out: Healthy cells IC50 (overall IC50 in human fibroblasts); cited from earlier work
[14] = one dose (10 μM), 48 h, FIG. 5A

Structure (SMILES)	IC50 [4] [µM]	IC50 [5] [µM]	IC50 [6] [µM]	other results
C[C@@H]1CC[C@H]2[C@@H](C)C(=O)O[C@@H]3O[C@@]4(C)CC[C@@H]1[C@]32OO4 [Artemisinin, artemisinin]	–	–	–	IC50 [1]: 69.6 µM; IC50 [2]: 36.9 ± 6.9 µM; IC50 [3]: 26.9 ± 4.4 µM
O=C1C2=Nc3ccccc3CN2C(=S)N1c1ccc([N+](=O)[O-])cc1 [Compound 3a]	27.8 ± 2.6	26.8 ± 1.67	19.8 ± 4.8	–
COc1cccc(N2C(=O)C3=Nc4ccccc4CN3C2=S)c1 [Compound 3j]	28.1 ± 0.831	28.1 ± 0.972	42.8 ± 6.1	–
CC(C)c1cccc(C(C)C)c1N1C(=O)C2=Nc3ccccc3CN2C1=S [Compound 3l]	25.1 ± 6.49	19.1 ± 7.1	30.5 ± 0.5	–
CC(c1ccccc1)N1C(=O)C2=Nc3ccc(Br)cc3CN2C1=S (stereo not drawn) [Compound 5a]	0.483 ± 0.025	0.409 ± 0.028	2.2 ± 0.2	–
C[C@H](c1ccccc1)N1C(=O)C2=Nc3cc([N+](=O)[O-])ccc3CN2C1=S [Compound 5d]	0.14 ± 0.028	0.127 ± 0.019	2.5 ± 0.8	Activity against healthy cells relative to CEM/ADR5000 cells [6]: fifteen to twenty times lower activity
CC(c1ccccc1)N1C(=O)C2=Nc3ccc(Cl)cc3CN2C1=S (stereo not drawn) [Compound 5e]	0.375 ± 0.043	0.295 ± 0.083	2.4 ± 0.5	–
CC(c1ccccc1)N1C(=O)C2=Nc3cc(Cl)ccc3CN2C1=S (stereo not drawn) [Compound 5f]	0.228 ± 0.022	0.156 ± 0.013	2.3 ± 0.7	Activity against healthy cells relative to CEM/ADR5000 cells [6]: fifteen to twenty times lower activity
CC(c1ccccc1)N1C(=O)C2=Nc3cccc(Cl)c3CN2C1=S (stereo not drawn) [Compound 5g]	0.125 ± 0.024	0.146 ± 0.015	2.8 ± 0.6	IC50 [7]: 15 ± 1.39 µM; Activation of cellular senescence [8]: able to provoke a senescence response; IC50 [9]: 18.5 ± 2.17 µM; Activity against healthy cells relative to CEM/ADR5000 cells [6]: fifteen to twenty times lower activity; IC50 [10]: 9.9 ± 0.71 µM; One dose cell viability screening, HL-60 [10, 14]: more active compared to 5k; IC50 [11]: 7.8 ± 0.63 µM; One dose cell viability screening, K562 [11, 14]: more active compared to 5k; Effect on MRTF-A nuclear localization [12]: efficiently increased cytoplasmic MRTF-A nuclear localization
COc1ccc2c(c1)CN1C(=S)N(C(C)c3ccccc3)C(=O)C1=N2 (stereo not drawn) [Compound 5k]	1.53 ± 0.148	1.33 ± 0.247	1.9 ± 0.4	IC50 [7]: 14 ± 2.43 µM; IC50 [9]: 28.7 ± 2.08 µM; IC50 [10]: 41.1 ± 3.12 µM; IC50 [11]: 24.7 ± 4.01 µM
COc1cccc2c1C(=O)c1c(O)c3c(c(O)c1C2=O)C[C@@](O)(C(=O)CO)C[C@@H]3O[C@H]1C[C@H](N)[C@H](O)[C@H](C)O1 [Doxorubicin, doxorubicin]	–	–	–	IC50 [13]: 1.8 µM; IC50 [2]: 0.009 µM; IC50 [3]: 23.3 µM
